From patent US20130213851A1, “OMEGA 3 FATTY ACID FORMULATIONS” (CENESTRA LLC., priority 2005, published 2013) come the findings set out here.

This data set deals with Attention Deficit Hyperactivity Disorder (ADHD)-combined type, and Tic Disorder. As to the kind of experiment: Case report: cognition, attention and tics after OMAX3 augmentation. The format is in vivo, human. The settings on record: for treatment response of tics: past use. The procedure: […] […] Past medication trials included: Strattera (atomoextine), Adderall, Adderall XR, methylphenidate, Tenex (guanfacine), and Concerta. His most recent medication treatment was with Concerta 54 mg per day.
R's Tic Disorder was comprised of both vocal and motor tics in the form of random verbalizations or screeching sounds, as well as either a facial and neck twitch.
The patient was treated with OMAX3, 2 capsules per day (1125 mg EPA, 275 mg DHA, 1500 mg Total Omega-3 fatty acids) for the purpose of enhancing their attention and cognitive function.

The structures appear in SMILES notation.

Turning to `COC(=O)C(c1ccccc1)C1CCCCN1` (stereo not shown) [Concerta], the inattention symptoms result (patient's report at baseline, Concerta 54 mg per day, before OMAX3) is on record as “sufficiently improved”.
As to `N=C(N)NC(=O)Cc1c(Cl)cccc1Cl` [Tenex, guanfacine], the tolerability entry (past use for tics, patient history) is on record as “poor tolerability”. The “treatment response of tics” value (patient history) was “only a partial treatment response”.
Consider `Cc1nc2n(c(=O)c1CCN1CCC(c3noc4cc(F)ccc34)CC1)CCCC2` [Risperdal, risperidone], for which the “treatment response of tics” value (patient history) was “only a partial treatment response”.
